According to patent publication US9266830B2, “Pesticidal arylpyrrolidines” (Bayer Intellectual Property GmbH, priority 2007, dated 2016):

How the values were obtained:
Format in all cases: in vivo
Lucilia cuprina larvae = assay: Lucilia cuprina test (larvae in minced horse meat); settings: Lucilia cuprina, 48 h, read-out: activity (mortality in %)
Protocol: (§1) Solvent: dimethyl sulfoxide
To produce a suitable preparation of active compound, 10 mg of active compound are dissolved in 0.5 ml solvent, and the concentrate is diluted with water to the desired concentration. Approximately 20-30 (Lucilia cuprina larvae) are transferred into a test tube containing 1 cm^3 of minced horse meat and 0.5 ml aqueous dilution of test compound. After 2 days mortality in % is determined 100% means that all the larvae have been killed; 0% means that none of the larvae have been killed.

Ctenocephalides felis = Ctenocephalides felis test (CTECFE), blood feeding; settings: 48 h, read-out: activity (mortality in %)
Protocol: as §1
To produce a suitable preparation of active compound, 10 mg of active compound are dissolved in 0.5 ml solvent, and the concentrate is diluted with cattle blood to the desired concentration. Approximately 10 to 15 adult unfed (Ctenocepahlides felis) are placed in flea chambers. The blood chamber, are sealed with parafilm on the bottom are filled with cattle blood supplied with compound solution and placed on top of the flea chamber, so that the fleas are able to suck the blood. The blood chamber is heated to 37° C. whereas the flea chamber is kept at room temperature. After 2 days mortality in % is determined 100% means that all the fleas have been killed; 0% means that none of the fleas have been killed.

Boophilus microplus = Boophilus microplus test (injection); settings: application rate 20 μg/animal, adult engorged females, after 7 days
Outline: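 Compound dissolved and diluted in DMSO, then injected into the abdomen of adult engorged female ticks, five per dose. Ticks held in a climate chamber and fertile egg deposition monitored. Read at 7 days as %, 100% = all eggs infertile, 0% = all fertile.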

Musca domestica = Musca domestica test (sugar sponge); settings: Musca domestica, 48 h, read-out: activity (mortality in %)
Protocol: as §1
To produce a suitable preparation of active compound, 10 mg of active compound are dissolved in 0.5 ml solvent, and the concentrate is diluted with water to the desired concentration. Prior to the assay, a piece or kitchen sponge is soaked with a mixture of sugar and compound solution and placed into a container. 10 adults (Musca domestica) are placed into the container and closed with a perforated lid. After 2 days mortality in % is determined. 100% means that all the flies have been killed; 0% means that none of the flies have been killed.

Row | SMILES | mortality at 100 ppm (Lucilia cuprina larvae) | mortality at 100 ppm (Ctenocephalides felis) | activity (100% means that all eggs are infertile) (Boophilus microplus) | mortality at 100 ppm (Musca domestica)
1 | O=C(NCc1ccc(N2CCC(c3cc(Cl)cc(Cl)c3)(C(F)(F)F)C2)cc1C(F)(F)F)c1ccc(Cl)nc1 (stereo not shown) [1-198, 6-chloro-N-{4-[3-(3,5-dichlorophenyl)-3-(trifluoromethyl)-pyrrolidin-1-yl]-2-(trifluoromethyl)benzyl}pyridine-3-carboxyamide] | 100% | 90% | 100% | 
2 | CCC(=O)NCc1sc(N2CCC(c3cc(Cl)c(Cl)c(Cl)c3)(C(F)(F)F)C2)nc1C(F)(F)F (stereo not shown) [5-142, N-({2-[3-(3,4,5-trichlorophenyl)-3-(trifluoromethyl)pyrrolidin-1-yl]-4-(trifluoromethyl)-1,3-thiazol-5-yl}methyl)propanamide] | 100% | 100% | 100% | 100%
